Measured values reported in patent US7230028B2, “Dimeric compounds and their use as anti-viral agents” (priority 2001, dated 2007).
In brackets after ≈: the same amount, converted by molar mass. Several values for one entry are separate records, joined by “and”; a condition that tells them apart may be missing. Identical values can stand only once.

Assays:
[1] = tested on: A/New Caledonia/20/99 BVLV008 (H1N1); assay: Plaque reduction assay (PRA) in MDCK cells; format: cell-based; conditions: Influenza A virus, H1N1, MDCK, read-out: EC50 PRA A/New, plaque reduction, A/New Caledonia/20/99 (H1N1)
B/Hong Kong/5/72 BVLV012 = assay: Plaque reduction assay (PRA) in MDCK cells; format: cell-based, influenza B
Procedure: (§1) Madin Darby Canine Kidney (MDCK) cells are seeded into six well tissue culture plates and grown to confluency via standard methods. Influenza viruses are diluted in a minimal volume of phosphate buffered saline supplemented with 0.2% bovine serum albumin to yield an estimated titre of 50–100 plaque forming units (pfu) per well. After adsorption to the MDCK cells for one hour at 37° C. in a 5% CO2 atmosphere the viral inocula is aspirated and replaced with viral growth media (minimal Eagle's media supplemented with BSA, trypsin and insulin/transferrin/selenium at optimal concentrations) containing sufficient agar or agarose (generally 1–2%) to cause the media to gel at room temperature and at 37° C. in a 5% CO2 atmosphere until plaques develop (generally 2–4 days). Plaques can be visualised with a suitable stain (e.g. 0.4% crystal violet in formal saline) before counting.

[2] = tested on: A/Victoria/3/75 BVLV017 (H3N2); assay: Plaque reduction assay (PRA) in MDCK cells; format: cell-based
[3] = tested on: B/Yamanashi/166/98 BVLV007; assay: Plaque reduction assay (PRA) in MDCK cells; format: cell-based
Influenza B/Harbin/7/95 = assay: Cytopathic effect (CPE) assay, inhibition of influenza virus replication in MDCK cells; format: cell-based; conditions: up to 72 hours, MTT
Influenza A/Sydney/5/97 = assay: as above; format: cell-based
B/Victoria/1/67 = assay: Plaque reduction assay (PRA) in MDCK cells; format: cell-based, influenza B; conditions: bis(trifluoroacetic acid salt)
[4] = tested on: A/Sydney/5/97 BVLV015 (H3N2); assay: Plaque reduction assay (PRA) in MDCK cells; format: cell-based, influenza A H3N2; conditions: A/Sydney/5/97 (H3N2)
Procedure: as §1

[5] = Rat lung retention assay (intra-tracheal dosing); format: in vivo; conditions: rat lung, 0.1 mg/kg intra-tracheal; for (cmpd): individual animal, bis(trifluoroacetic acid salt), 0.1 mg/kg
Procedure: Rodents are anaesthetised and dosed with compound of interest by the intra-tracheal route at a dose volume of 0.8 ml/kg. The rodent is then held in the vertical position until full recovery is achieved. […] Any analytical method suitable for detection of this type of compound may be used. The time at which levels of compound fall below the sensitivity of the analytical techniques identified will determine the residency time of the compound in lung tissue.
Please note that all experiments included a co-dosed internal standard, namely compound 3 of International Patent Publication No. WO 02/20514, to permit comparison. The data are expressed as a ratio with respect to this compound, the structure of which is shown below.

SMILES: NC12CC3CC(CC(C3)C1)C2 [Amantadine, reference compound]
- EC50 [1]: 11 ng/mL (≈ 0.0727 µM)
- EC50 (B/Hong Kong/5/72 BVLV012; Influenza B virus, MDCK, read-out: EC50 PRA B/HongK): > 10000 ng/mL
- EC50 ([2]; Influenza A virus, H3N2, MDCK, read-out: EC50 PRA A/Vic, plaque reduction, A/Victoria/3/75 (H3N2)): 220 ng/mL (≈ 1.45 µM)
- EC50 ([3]; Influenza B virus, MDCK, read-out: EC50 PRA B/Yam, plaque reduction, B/Yamanashi/166/98): 2060 ng/mL (≈ 13.6 µM)

SMILES: CC(=O)N[C@H]1[C@H]([C@H](OC(=O)NCCCCCCCCCCNC(=O)O[C@@H]([C@@H]2OC(C(=O)O)=C[C@H](NC(=N)N)[C@H]2NC(C)=O)[C@H](O)CO)[C@H](O)CO)OC(C(=O)O)=C[C@@H]1NC(=N)N.O=C(O)C(F)(F)F.O=C(O)C(F)(F)F [Example 1, (2R,3R,4S)-3-(acetylamino)-2-{(1R,18R,19R)-18-((2R,3R,4S)-3-(acetylamino)-4-{[amino(imino)methyl]amino}-6-carboxy-3,4-dihydro-2H-pyran-2-yl)-1-[(1R)-1,2-dihydroxyethyl]-19,20-dihydroxy-3,16-dioxo-2,17-dioxa-4,15-diazaicos-1-yl}-4-{[amino(imino)methyl]amino}-3,4-dihydro-2H-pyran-6-carboxylic acid bis(trifluoroacetic acid salt)]
- ID50 B/Harbin/7/95 (Influenza B/Harbin/7/95): 0.0001 µg/mL
- ID50 A/Sydney/5/97 (Influenza A/Sydney/5/97; up to 72 hours, MTT): 0.0002 µg/mL

SMILES: CC(=O)N[C@H]1[C@H]([C@H](OC(=O)NCCCCCCCCCCCNC(=O)O[C@@H]([C@@H]2OC(C(=O)O)=C[C@H](NC(=N)N)[C@H]2NC(C)=O)[C@H](O)CO)[C@H](O)CO)OC(C(=O)O)=C[C@@H]1NC(=N)N.O=C(O)C(F)(F)F.O=C(O)C(F)(F)F [Example 2, (2R,3R,4S)-3-(acetylamino)-2-{(1R,19R,20R)-19-((2R,3R,4S)-3-(acetylamino)-4-{[amino(imino)methyl]amino}-6-carboxy-3,4-dihydro-2H-pyran-2-yl)-1-[(1R)-1,2-dihydroxyethyl]-20,21-dihydroxy-3,17-dioxo-2,18-dioxa-4,16-diazahenicos-1-yl}-4-{[amino(imino)methyl]amino}-3,4-dihydro-2H-pyran-6-carboxylic acid bis(trifluoroacetic acid salt)]
- EC50 PRA B/Yam ([3]; plaque reduction, B/Yamanashi/166/98): <0.0001 ng/mL
- EC50 PRA B/Vic (B/Victoria/1/67): 0.04 ng/mL
- ID50 B/Harbin/7/95 (Influenza B/Harbin/7/95): 0.0001 µg/mL
- EC50 PRA A/Syd [4]: <0.0001 ng/mL
- ID50 A/Sydney/5/97 (Influenza A/Sydney/5/97; up to 72 hours, MTT): 0.0001 µg/mL

SMILES: CC(=O)N[C@H]1[C@H]([C@H](OC(=O)NCCCCCCCCCCCCNC(=O)O[C@@H]([C@@H]2OC(C(=O)O)=C[C@H](NC(=N)N)[C@H]2NC(C)=O)[C@H](O)CO)[C@H](O)CO)OC(C(=O)O)=C[C@@H]1NC(=N)N.O=C(O)C(F)(F)F.O=C(O)C(F)(F)F [Example 3, (2R,3R,4S)-3-(acetylamino)-2-{(1R,20R,21R)-20-((2R,3R,4S)-3-(acetylamino)-4-{[amino(imino)methyl]amino}-6-carboxy-3,4-dihydro-2H-pyran-2-yl)-1-[(1R)-1,2-dihydroxyethyl]-21,22-dihydroxy-3,18-dioxo-2,19-dioxa-4,17-diazadocos-1-yl}-4-{[amino(imino)methyl]amino}-3,4-dihydro-2H-pyran-6-carboxylic acid bis(trifluoroacetic acid salt)]
- Mean (cmpd) ([5]; 48 hrs): 1117 ng/g
- Mean (cmpd) ([5]; 168 hrs): 376 ng/g
- (cmpd) ([5]; 48 hrs): 591 ng/g and 1845 ng/g and 914 ng/g
- (cmpd) ([5]; 168 hrs): 471 ng/g and 546 ng/g and 111 ng/g
- EC50 PRA B/HongK (B/Hong Kong/5/72 BVLV012): <0.0001 ng/mL
- EC50 PRA A/Vic ([2]; plaque reduction, A/Victoria/3/75 (H3N2)): 0.0023 ng/mL
- EC50 PRA B/Vic (B/Victoria/1/67): 0.01 ng/mL
- ID50 B/Harbin/7/95 (Influenza B/Harbin/7/95): 0.0001, 0.0001 μg/ml
- ID50 A/Sydney/5/97 (Influenza A/Sydney/5/97; molar): 0.087 M
- ID50 A/Sydney/5/97 (Influenza A/Sydney/5/97; up to 72 hours, MTT): 0.0001, 0.0001 μg/ml
